US20240424119A1, “USE OF POLYPEPTIDE IN RESISTANCE TO ADDICTION AND RELAPSE THEREOF, AND COMPLEX AND POLYPEPTIDE” (SHENZHEN CHENYANG BIOLOGICAL TECHNOLOGY CO., LTD, priority 2021, published 2024)
No end group written: not given here.

Tests used:
[1] = test system: alcohol-induced behavioral sensitization in mice; assay: Effects of different polypeptides on alcohol-induced behavioral sensitization in mice; type: in vivo; details: 3 nmol/g i.p. 1 hour before alcohol (2.2 g/kg) on third day after training; TAT fusion peptides; n=10
Procedure: (§1) Then, the C-terminal of Pep1 to Pep5 was fused to the N-terminal of TAT respectively to obtain fusion peptides which could penetrate the blood-brain barrier.
In order to verify that the polypeptide of the invention is also effective against alcohol-induced addiction, the following tests were carried out:
The training period lasted for 10 days, during which mice were administered alcohol (2.2 g/kg) or normal saline every other day and then immediately tested for 15 minutes. On the third day after training, 1 hour before alcohol administration, different polypeptides of Example 9 (3 nmol/g) were administered to mice via intraperitoneal injection (10 ml/kg) for drug induction, and a testing was carried out, and the results were shown in FIG. 19.

[2] = test system: morphine-induced CPP in mice; assay: Effects of different polypeptides on morphine-induced CPP in mice; type: in vivo; details: 3 nmol/g i.p. on Day 10, recorded on the second day after administration; TAT fusion peptides; n=12
Procedure: The CPP equipment used in the experiment has two equal-volume chambers (15 cm×15 cm×37 cm) with a movable door in the middle. Mice could freely shuttle between chambers during testing, or were limited to one side of the chamber during training. The interior of one chamber is black and the bottom is striped, while the other chamber is white and the bottom is latticed. All behavioral tests, including distance and time of activity, were recorded by a camera and calculated using the SMART Video Tracking System (Version 2.5; Panlab Technology for Biosearch, Spain).
On Day 1, mice were allowed to explore two chambers freely for 15 min without any treatment (before testing). On Day 2, 4, 6 and 8, control group (saline group) and model group (morphine group) received saline (10 mL/kg) and morphine (10 mg/kg), respectively. TAT group (3 nmol/g) and TAT-D2R-KT group (3 nmol/g) were injected (intraperitoneally, 10 ml/kg body weight) 1 hour before morphine injection. After injection, all mice were trained in the white chamber for 40 min. On Day 3, 5, 7 and 9, all mice were given normal saline, and then immediately placed in the black chamber for 40 min; on Day 10, after all mice explored freely for 15 min, the test ended, and the CPP scores (moving duration of mice) were shown in FIG. 6.
as §1
Mice were given morphine (1 mg/kg) or normal saline for 8 days, and different polypeptides (3 nmol/g) of Example 9 were administered to mice via intraperitoneal injection (10 ml/kg) on Day 10; the expression of morphine-induced CPP was recorded according to the CPP experimental method in Example 5 on the second day after administration, and the results were shown in FIG. 17.

[3] = test system: cocaine-induced behavioral sensitization in mice; assay: Effects of different polypeptides on cocaine-induced behavioral sensitization in mice; type: in vivo; details: 3 nmol/g i.p. 1 hour before cocaine (15 mg/kg) on sixth day of pause; TAT fusion peptides; n=10
Procedure: as §1
In order to verify that the polypeptide of the invention is also effective against cocaine-induced addiction, the following tests were carried out:
Mice were given cocaine (15 mg/kg) or normal saline and then tested for 30 minutes, repeated for 5 days, and followed by a 5-day pause of administration. On the sixth day of the pause, 1 hour before cocaine administration, different polypeptides of Example 9 (3 nmol/g) were administered to mice via intraperitoneal injection (10 ml/kg) for drug induction, and a testing was carried out, and the results were shown in FIG. 18.

D2R/NR2B complex = target: T1, D2R/NR2B complex (Mus musculus, UniProt Q01097); assay: Co-immunoprecipitation of hippocampus tissue from polypeptide-treated CPP mice and BS mice; type: in vivo
T1 construct: Co-immunoprecipitation was performed using a protein sample (100-500 μg protein) from hippocampus tissue; from tissue; host or cells: hippocampus tissue of CPP and BS mice treated in vivo
T1 sequence (Q01097 27-1482, other chains not shown): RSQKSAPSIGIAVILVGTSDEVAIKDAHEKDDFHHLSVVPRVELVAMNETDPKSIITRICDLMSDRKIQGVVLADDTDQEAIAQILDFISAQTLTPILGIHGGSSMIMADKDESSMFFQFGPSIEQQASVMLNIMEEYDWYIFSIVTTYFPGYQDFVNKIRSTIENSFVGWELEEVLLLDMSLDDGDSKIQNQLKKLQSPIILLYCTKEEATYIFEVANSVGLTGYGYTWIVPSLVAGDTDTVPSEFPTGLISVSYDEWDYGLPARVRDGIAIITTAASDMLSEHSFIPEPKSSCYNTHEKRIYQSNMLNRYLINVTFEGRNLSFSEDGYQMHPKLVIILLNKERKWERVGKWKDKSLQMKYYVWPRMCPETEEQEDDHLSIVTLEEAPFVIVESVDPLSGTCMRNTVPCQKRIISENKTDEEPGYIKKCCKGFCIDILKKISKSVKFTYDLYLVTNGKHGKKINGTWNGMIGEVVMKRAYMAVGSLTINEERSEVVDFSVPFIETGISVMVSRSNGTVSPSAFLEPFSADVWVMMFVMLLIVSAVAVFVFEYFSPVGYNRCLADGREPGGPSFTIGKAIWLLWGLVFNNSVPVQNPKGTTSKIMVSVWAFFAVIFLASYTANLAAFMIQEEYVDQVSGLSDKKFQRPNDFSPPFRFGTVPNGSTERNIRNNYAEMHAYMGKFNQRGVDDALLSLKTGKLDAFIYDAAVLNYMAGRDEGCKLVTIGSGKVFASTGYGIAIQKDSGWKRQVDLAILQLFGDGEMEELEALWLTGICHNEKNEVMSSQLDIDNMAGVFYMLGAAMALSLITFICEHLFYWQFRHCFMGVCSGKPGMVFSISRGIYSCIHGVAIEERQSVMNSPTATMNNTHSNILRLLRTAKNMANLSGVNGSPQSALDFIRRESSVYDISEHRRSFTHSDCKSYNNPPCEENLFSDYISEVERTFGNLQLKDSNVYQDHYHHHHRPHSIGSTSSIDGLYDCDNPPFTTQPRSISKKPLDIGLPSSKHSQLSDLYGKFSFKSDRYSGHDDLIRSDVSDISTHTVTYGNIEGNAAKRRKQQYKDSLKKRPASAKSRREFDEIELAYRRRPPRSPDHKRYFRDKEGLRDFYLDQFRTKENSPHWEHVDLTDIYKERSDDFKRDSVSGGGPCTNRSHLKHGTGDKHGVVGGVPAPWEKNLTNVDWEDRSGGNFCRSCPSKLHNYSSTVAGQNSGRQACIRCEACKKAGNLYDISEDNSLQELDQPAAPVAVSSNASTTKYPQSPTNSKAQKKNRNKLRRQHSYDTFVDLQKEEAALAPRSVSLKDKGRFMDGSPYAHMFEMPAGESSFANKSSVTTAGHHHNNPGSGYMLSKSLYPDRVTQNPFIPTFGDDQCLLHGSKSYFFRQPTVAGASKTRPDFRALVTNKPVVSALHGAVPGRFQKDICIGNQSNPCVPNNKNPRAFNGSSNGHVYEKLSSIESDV
Procedure: Co-immunoprecipitation was performed using a protein sample (100-500 μg protein) from hippocampus tissue. NR2B and D1R or D2R were precipitated using an anti-NR2B and D2R, D2R or NR2B and 25 μl protein A/G+agarose bead slurry (SantaCruz Biotechnology, sc-2001), respectively.
The protein was then isolated on 8% SDS-PAGE gel and detected with a mouse antibody against NR2B and D2R. HRP-coupled secondary antibody and enhanced chemiluminescence method were used to detect the protein. Density analysis of bands was performed using image laboratory software.
In order to verify the effect of KT polypeptide of D2R on the D2R/NR2B complex in vivo, the C terminal of the region (K211-T225) was fused to the N terminal of transduction domain of HIV-1-type Tat protein (as set forth in SEQ ID NO: 6, hereinafter referred to as TAT) to obtain a fusion protein which can permeate blood-brain barrier, named TAT-D2R-KT.
CPP mice and BS mice were treated with TAT-D2R-KT respectively, and mice treated with TAT only were used as control (all treated by single intraperitoneal administration, 10 ml/kg body weight, medicament concentration 3 nmol/g). After 1 hour of treatment, analysis was performed according to the co-immunoprecipitation method in Example 1, and the results were shown in FIG. 4.

NR2B = target: T2, NR2B (Mus musculus, UniProt Q01097); assay: GST-pulldown of NR2B from hippocampus extract by GST fusion proteins of D2R regions; type: binding; details: 500 μg hippocampus extract, overnight, 4° C.
T2 construct: from tissue; host or cells: hippocampus extract
T2 sequence (Q01097 27-1482, other chains not shown): as above
Procedure: In order to search for the physical interaction site between D2R and NR2B, cDNA fragments of the CT region of D2R (T428-C443) and the third intracellular loop (IL3) region of D2R (K211-Q373) were first obtained via the D2R full-length cDNA clone (Genbank Accession No.: M29066.1). These fragments were subcloned to the BamH1/EcoR1 or BamH1/Xho1 site of a pGEX-4T-3 plasmid (YouBio, Item No: VT1255). Initiation methionine residue and termination codon were added as appropriate. All constructs were resequenced to confirm that splice fusion was achieved appropriately. The GST fusion protein containing the IL3 region of D2R (GST-D2R-IL3) and the GST fusion protein containing the CT region of D2R (GST-D2R-CT) were obtained by using E.coli BL21 viable cells (AlpalifeBio, Item No: KTSM104L) for expression and purifying them from bacterial lysate, wherein the specific positions of the coding sequences of IL3 region and CT region on D2R were shown in FIG. 2.
500 μg of dissolved hippocampus extract was diluted with 1×PBS/0.1% Triton X-100 and incubated overnight with 20 μl protein GST resin (TransGen Biotech, Item No: N21220, Beijing, China) saturated with GST protein only or with the prepared 15 µg GST fusion protein at 4° C. Beads were washed 1-8 times with 1×PBS/0.1% Triton X-100. Binding proteins were eluted with 2×loading buffer, separated by SDS-PAGE, and subjected to Western blot with respective antibodies thereof, and the results were shown in A of FIG. 3.
Next, in order to further explore the interaction sequence/site between D2R and NR2B, the IL3 region was divided into KVC (K211-V270) region of D2R, ES (E271-S321) region of D2R and PQ (P322-Q373) region of D2R.
According to the method in the present Example, a pulldown analysis was performed using a GST fusion protein containing the KVC region of D2R (GST-D2R-KVC), a GST fusion protein containing the ES region of D2R (GST-D2R-ES), and a GST fusion protein containing the PQ region of D2R (GST-D2R-PQ), and the results of Western blot were shown in B of FIG. 3.
Further, the KVC region was divided into KT (K211-T225) region of D2R, KL (K226-L240) region of D2R, KV (K241-V255) region of D2R, and IV (1256-V270) region of D2R.
According to the method in the present Example, a pulldown analysis was performed using a GST fusion protein containing the KT region of D2R (GST-D2R-KT), the GST fusion protein containing the KL region of D2R (GST-D2R-KL), a GST fusion protein containing the KV region of D2R (GST-D2R-KV), and a GST fusion protein containing the IV region of D2R (GST-D2R-IV), and the results of Western blot were shown in C of FIG. 3.

binding of D2R to NR2B = binding of D2R to NR2B (Homo sapiens, UniProt Q13224); details: Liu et al., Neuron 52, 897-909, FIGS. 3M and 3N; cited from earlier work
Sequence of binding of D2R to NR2B (Q13224 27-1484): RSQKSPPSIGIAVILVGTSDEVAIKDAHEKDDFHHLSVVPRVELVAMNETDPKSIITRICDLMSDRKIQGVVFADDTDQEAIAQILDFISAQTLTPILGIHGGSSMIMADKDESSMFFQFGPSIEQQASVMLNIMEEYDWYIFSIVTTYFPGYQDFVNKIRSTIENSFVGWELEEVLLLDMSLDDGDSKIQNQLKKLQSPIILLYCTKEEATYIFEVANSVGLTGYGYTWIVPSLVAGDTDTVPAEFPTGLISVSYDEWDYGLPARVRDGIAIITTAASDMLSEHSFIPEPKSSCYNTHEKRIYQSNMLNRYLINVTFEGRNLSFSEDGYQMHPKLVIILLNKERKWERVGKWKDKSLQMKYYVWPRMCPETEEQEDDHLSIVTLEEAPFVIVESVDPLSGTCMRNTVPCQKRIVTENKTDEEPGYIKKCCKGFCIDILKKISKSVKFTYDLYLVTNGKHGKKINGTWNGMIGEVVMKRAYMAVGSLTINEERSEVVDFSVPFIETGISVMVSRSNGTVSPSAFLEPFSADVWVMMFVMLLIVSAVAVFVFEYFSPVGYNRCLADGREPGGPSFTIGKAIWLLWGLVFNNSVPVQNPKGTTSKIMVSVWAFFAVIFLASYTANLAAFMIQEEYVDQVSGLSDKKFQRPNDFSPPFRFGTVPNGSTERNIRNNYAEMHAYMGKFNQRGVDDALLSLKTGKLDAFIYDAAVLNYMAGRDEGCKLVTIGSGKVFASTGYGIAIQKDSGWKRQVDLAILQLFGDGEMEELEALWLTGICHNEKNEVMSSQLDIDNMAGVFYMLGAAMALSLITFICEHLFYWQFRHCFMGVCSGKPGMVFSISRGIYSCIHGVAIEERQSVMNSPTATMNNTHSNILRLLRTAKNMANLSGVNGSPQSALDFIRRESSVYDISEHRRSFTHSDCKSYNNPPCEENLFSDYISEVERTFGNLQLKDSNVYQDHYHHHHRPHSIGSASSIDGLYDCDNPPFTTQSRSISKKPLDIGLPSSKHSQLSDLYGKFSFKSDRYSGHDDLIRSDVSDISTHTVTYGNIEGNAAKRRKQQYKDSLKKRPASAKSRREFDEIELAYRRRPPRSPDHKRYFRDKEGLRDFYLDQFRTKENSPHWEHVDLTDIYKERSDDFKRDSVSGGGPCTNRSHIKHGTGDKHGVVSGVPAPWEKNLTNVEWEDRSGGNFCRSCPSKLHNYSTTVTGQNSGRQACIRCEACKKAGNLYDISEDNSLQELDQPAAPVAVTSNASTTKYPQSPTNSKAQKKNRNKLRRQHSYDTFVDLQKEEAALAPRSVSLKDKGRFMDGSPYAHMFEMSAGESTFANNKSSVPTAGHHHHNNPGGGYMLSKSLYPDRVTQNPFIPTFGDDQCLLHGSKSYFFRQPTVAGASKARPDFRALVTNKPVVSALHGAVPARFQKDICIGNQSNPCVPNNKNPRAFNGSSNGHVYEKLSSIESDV

| Molecule | expression of sensitization behavior (alcohol-induced) [1] | activity distance of morphine-CPP mice [2] | expression of sensitization behavior (cocaine-induced) [3] | precipitation of NR2B by GST fusion protein (pulldown, Western blot) (NR2B) | further results |
| --- | --- | --- | --- | --- | --- |
| KIYIVLGGGRKRVNT [Pep4, variant with the mid-segment RRR mutated to GGG; tested fused to TAT] | failed to inhibit the expression of sensitization behavior | failed to significantly reduce the activity distance | failed to inhibit the expression of sensitization behavior |  |  |
| KIYIVLRRRGGGVNT [Pep5, variant with the mid-segment RKR mutated to GGG; tested fused to TAT] | failed to inhibit the expression of sensitization behavior | failed to significantly reduce the activity distance | failed to inhibit the expression of sensitization behavior |  |  |
| KIYIVLRRRRKRV [Pep3, variant of KT polypeptide, C-terminal truncated; tested fused to TAT] | significantly inhibited the expression of sensitization behavior | significantly reduced the activity distance | significantly inhibited the expression of sensitization behavior |  |  |
| KIYIVLRRRRKRVNT [Pep1, KT polypeptide, K211-T225 of the IL3 region of D2R; tested in vivo fused to TAT] | significantly inhibited the expression of sensitization behavior | significantly reduced the activity distance | significantly inhibited the expression of sensitization behavior |  | D2R/NR2B interaction in hippocampus tissue (co-immunoprecipitation) (D2R/NR2B complex; CPP mice and BS mice, single intraperitoneal administration 3 nmol/g, 1 hour after treatment, TAT only as control): competitively disrupted the D2R/NR2B interaction; interaction between D2R and NR2B (D2R/NR2B complex; summary statement of the inventors' finding, no conditions given): successfully reduced the interaction between D2R and NR2B |
| KL region of D2R: GST fusion protein containing the KL region of D2R (K226-L240) (KRSSRAFRAHLRAPL; also: GST fusion; UniProt P14416 226-240, looked up, fragment) |  |  |  | could not be precipitated |  |
| KT region of D2R: GST fusion protein containing the KT region of D2R (K211-T225) (KIYIVLRRRRKRVNT; also: GST fusion) |  |  |  | precipitated with affinity |  |
| KVC region of D2R: GST fusion protein containing the KVC region of D2R (K211-V270) (KIYIVLRRRRKRVNTKRSSRAFRAHLRAPLKGNCTHPEDMKLCTVIMKSNGSFPVNRRRV; cysteine pairing not given here; also: GST fusion) |  |  |  | precipitated with affinity |  |
| P4: Liu et al. polypeptide of IL3 from D2R (1210-K226) lacking the motif TKRSSRAFRA (IKIYIVLRRRRKRVNTK; UniProt P14416 210-226, looked up, fragment) [Pep P4] |  |  |  |  | prevention of the binding of D2R to NR2B (binding of D2R to NR2B): had no preventing effect |
| P5: Liu et al. polypeptide of IL3 from D2R containing motif T225-A234 (TKRSSRAFRA; UniProt P14416 225-234, looked up, fragment) [Pep P5] |  |  |  |  | prevention of the binding of D2R to NR2B (binding of D2R to NR2B): successfully prevented the binding of D2R to NR2B |
| YIVLRRRRKRVNT [Pep2, variant of KT polypeptide, N-terminal truncated; tested fused to TAT] | significantly inhibited the expression of sensitization behavior | significantly reduced the activity distance | significantly inhibited the expression of sensitization behavior |  |  |
| IL3 region of D2R: GST fusion protein containing the IL3 region of D2R (K211-Q373) (protein, left off: a dimerising Fc or GST; large carriers; small tags and cut ends) KIYIVLRRRRKRVNTKRSSRAFRAHLRAPLKGNCTHPEDMKLCTVIMKSNGSFPVNRRRVEAARRAQELEMEMLSSTSPPERTRYSPIPPSHHQLTLPDPSHHGLHSTPDSPAKPEKNGHAKDHPKIAKIFEIQTMPNGKTRTSLKTMSRRKLSQQKEKKATQ |  |  |  | precipitated with affinity |  |
